Reference: patent US20260337176A1, “AUTOPHAGY REGULATOR AND USE THEREOF” (SHENZHEN INSTITUTES OF ADVANCED TECHNOLOGY, CHINESE ACADEMY …, priority 2023, published 2026)

What was measured:
[1] = test system: cancer cells HeLa and 4T1 and normal cells HEK293; experiment: Selectivity for tumor cells (red fluorescence intensity in cancer vs normal cells); assay type: cell-based; settings: 4T1 vs HEK293, 1 μM, 30 min; for fluorescence intensity, cancer cells vs normal cells, complete medium / selectivity for cancer cells: complete medium (serum-containing)
Description: (§1) Cancer cells HeLa and 4T1 and normal cells HEK293 were cultured using a complete medium (DMEM medium containing 10% fetal bovine serum and 1% penicillin/streptomycin) in a saturated-humidity incubator at 37 °C and 5% CO2, and passaged once every 2 to 3 days.
(§2) When the cells grew to the logarithmic phase, they were transferred to confocal dishes or 96-well plates: Cells fully grown in a T25 cell culture flask were first washed with PBS, and then digested with 1 mL of trypsin for 1 to 2 minutes (0.25% trypsin for HeLa and 4T1, and 0.025% trypsin for HEK293). After removal of trypsin, fresh medium was added, and the cells were pipetted uniformly and counted, whose density was controlled by the amount of medium added. (1) The cells were inoculated into a confocal glass-bottom culture dish, and was cultured in a 5% CO2 incubator.When the cells grew to a coverage of ~70% they were used for confocal imaging experiments. (2) The cells were inoculated into a low-attachment U-bottom 96-well plate, and when the diameter of the cell spheroids reached ~800 μm, the cell spheroids were used for antitumor evaluation.
After three groups of cancer cells HeLa and 4T1 and normal cells HEK293 individually grown on confocal glass-bottom culture dishes prepared in Test example 1 were washed with PBS, one group was incubated in complete medium (serum-containing) with 1 μM of the compound synthesized in Example 1 in the dark for 30 min, and the second group was incubated in complete medium with 1 μM of (E)-4-(2-(5-methoxy-1H-indol-3-yl)vinyl)-1-n-octylquinolinium iodide in the dark for 30 min, and the third group was incubated in DMEM (serum-free)with 1 μM of the compound synthesized in Example 1 in the dark for 30 min. After PBS washing, all the cells were placed in DMEM, and differences in red fluorescence intensity from the three groups of tumor cells and normal cells were observed and recorded under a laser scanning confocal microscope (EX561 nm, EM600-700 nm).

HeLa cells = experiment: Verification of how compound enters cells (37 °C vs 4 °C); assay type: cell-based; settings: 2 μM, 30 min, complete medium; for way of entering cells: 37 °C vs 4 °C
Description: as §1, §2
After two groups of HeLa cells grown on confocal glass-bottom culture dishes prepared in Test example 1 were washed with PBS, one group was incubated at 37 °C in the dark for 30 min in complete medium with 2 μM of the compound synthesized in Example 1, and the other group was incubated at 4 °C for the same period in complete medium with 2 μM of compound synthesized in Example 1. After PBS washing, the incubated cells were placed in DMEM, and red fluorescence distribution in cells from the two groups was observed and recorded using a laser scanning confocal microscope (EX561 nm, EM600-700 nm).
After two groups of HeLa cells grown on confocal glass-bottom culture dishes prepared in Test example 1 were washed with PBS, one group was incubated in complete medium with 2 μM of (E)-4-(2-(5-methoxy-1H-indol-3-yl)vinyl)-1-n-octylquinolinium iodide in the dark at 37 °C for 30 min, and the other group was incubated in complete medium solution with 2 μM (E)-4-(2-(5-methoxy-1H-indol-3-yl)vinyl)-1-n-octylquinolinium iodide in the dark at 4 °C for the same period. After PBS washing, the cells were placed in DMEM, and red fluorescence in cells from the two groups was observed and recorded using a laser scanning confocal microscope (EX561 nm, EM600-700 nm).

HeLa cells (autophagy) = experiment: Imaging of autophagic vacuoles and autophagosomes in HeLa cells (Cell-Tracker Green CMFDA); assay type: cell-based; settings: 10 μM, 90 min
Description: as §1, §2
Two groups of HeLa cells grown on confocal glass-bottom culture dishes prepared in Test example 1 were firstly washed with PBS. Then one group was incubated in the dark for 90 min in complete medium with 10 μM of the compound synthesized in Example 1, and the other group was incubated in complete medium with an equal amount of DMSO as a blank control sample. Subsequently, the cells were incubated in DMEM with 5 μM green live-cell tracking probe (Cell-Tracker Green CMFDA) for 30 min. After PBS washing, the cells were placed in DMEM and observed under a laser scanning confocal microscope. The fluorescence distribution of Cell-Tracker Green in cells from the two groups was recorded.
After HeLa cells grown on confocal glass-bottom culture dish prepared in Test example 1 was washed with PBS, they were incubated in complete medium with 10 μM of the compound synthesized in Example 2 in the dark for 90 min, and then incubated in DMEM with 5 μM green live-cell tracking probe (Cell-Tracker Green CMFDA) in the dark for 30 min followed by PBS washing. The cells were placed in DMEM and observed under a laser scanning confocal microscope. The fluorescence distribution of Cell-Tracker Green in the cells was recorded.

[2] = test system: HeLa cells (mitochondria and lysosomes); experiment: Localization observation in HeLa cells (colocalization with MitoTracker Green and LysoBrite NIR); assay type: cell-based; settings: 2 μM, 30 min, confocal colocalization
Description: as §1
as §2, with “evaluation. […]” for “evaluation.”

HEK293 cell spheroids = experiment: Changes in growth of HEK293 cell spheroids; assay type: cell-based; settings: 10 μM, 24 h
Description: as §1
as §2, with “evaluation. […]” for “evaluation.”

bovine serum albumin = bovine serum albumin (Bos taurus, UniProt P02769); experiment: Binding constant with albumin (fluorescence quenching, double-logarithmic fitting)
Description: The compound synthesized in Example 1 was added at different concentrations (0 to 15 μM) to PBS containing bovine serum albumin, and then fluorescence spectra of bovine serum albumin were measured using a fluorescence spectrometer (280 nm EX).

[3] = test system: HeLa cells (mitochondrial membrane potential); experiment: Changes in mitochondrial membrane potential of HeLa cells (rhodamine 123); assay type: cell-based; settings: 10 μM, 30 min, vs DMSO blank control
Description: as §1
as §2, with “(2) The cells were inoculated into a low-attachment U-bottom 96-well plate, and when the diameter of the cell spheroids reached ~800 μm, the cell spheroids were used for antitumor evaluation.” left out
Two groups of HeLa cells grown on confocal glass-bottom culture dishes prepared in Test example 1 were both incubated with 5 μM rhodamine 123 in darkness in a CO2 incubator for 30 min and then washed with PBS. […] After PBS washing, the cells were observed under a laser scanning confocal microscope, and the changes of the fluorescence brightness from rhodamine 123 in the two groups of cells were recorded.

[4] = test system: HeLa cells (lysosomal pH); experiment: Changes in lysosomal pH of HeLa cells (LysoSensor Green DND-189); assay type: cell-based; settings: 10 μM, 30 min, vs DMSO blank control
Description: as §1
as §2, with “(2) The cells were inoculated into a low-attachment U-bottom 96-well plate, and when the diameter of the cell spheroids reached ~800 μm, the cell spheroids were used for antitumor evaluation.” left out
Two groups of HeLa cells grown on confocal glass-bottom culture dishes prepared in Test example 1 were incubated with 2 μM lysosomal green fluorescent probe (LysoSensor Green DND-189) in the dark for 30 min in a CO2 incubator, and then washed with PBS. […] The changes in the fluorescence brightness of LysoSensor Green in cells from the two groups were recorded.

[5] = test system: HeLa cells (fusion of mitochondria and lysosomes); experiment: Fusion of mitochondria and lysosomes in HeLa cells (MitoTracker Green / LysoBrite NIR); assay type: cell-based; settings: compound 10 μM in complete medium, ~5 h
Description: as §1
as §2, with “(2) The cells were inoculated into a low-attachment U-bottom 96-well plate, and when the diameter of the cell spheroids reached ~800 μm, the cell spheroids were used for antitumor evaluation.” left out
After two groups of HeLa cells grown on confocal glass-bottom culture dishes prepared in Test example 1 were washed with PBS, both were incubated with 1 μM mitochondrial green fluorescent probe (MitoTracker Green) in the dark for 30 min, followed by 30 min incubation with 1 μM lysosomal deep-red probe (LysoBrite NIR). […] The fluorescence distribution of MitoTracker Green and LysoBrite NIR in cells from the two groups was recorded.

HeLa cell spheroids = experiment: Changes in growth of HeLa cell spheroids; assay type: cell-based; settings: 10 μM, 24 h
Description: as §1, §2
After two groups of HEK293 cell spheroids and two groups of HeLa cell spheroids prepared in Test example 1 were photographed under a microscope, one group of HEK293 and HeLa cell spheroids was incubated in a complete medium containing 10 μM of the compound synthesized in Example 1 as an experimental administration group, and the other group of HEK293 and HeLa cell spheroids was incubated in a complete medium containing the same volume of DMSO as a blank control. After 24 h, photographs were taken again using the microscope to observe changes in morphology and size of the cell spheroids.

bovine serum albumin, sequence (P02769 25-607): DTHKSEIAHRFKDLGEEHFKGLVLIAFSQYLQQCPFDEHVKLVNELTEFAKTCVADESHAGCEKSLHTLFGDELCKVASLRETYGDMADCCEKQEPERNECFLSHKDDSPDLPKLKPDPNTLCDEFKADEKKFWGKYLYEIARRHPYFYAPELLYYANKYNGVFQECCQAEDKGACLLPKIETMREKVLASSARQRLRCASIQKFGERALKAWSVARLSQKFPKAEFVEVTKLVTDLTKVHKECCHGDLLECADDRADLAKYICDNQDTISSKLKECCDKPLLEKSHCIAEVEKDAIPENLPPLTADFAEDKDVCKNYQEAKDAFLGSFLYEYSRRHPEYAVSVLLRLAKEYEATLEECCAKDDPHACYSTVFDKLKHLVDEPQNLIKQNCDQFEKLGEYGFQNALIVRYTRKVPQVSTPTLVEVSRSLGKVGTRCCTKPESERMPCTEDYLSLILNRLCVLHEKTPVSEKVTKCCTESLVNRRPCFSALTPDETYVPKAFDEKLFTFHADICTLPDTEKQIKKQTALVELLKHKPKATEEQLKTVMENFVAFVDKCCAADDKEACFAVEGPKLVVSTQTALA

**Q.** With CCCCCCCC[n+]1ccc(/C=C/c2c[nH]c3ccc(OC)cc23)c2ccccc21.[I-] [(E)-4-(2-(5-methoxy-1H-indol-3-yl)vinyl)-1-n-octylquinolinium iodide, reference compound] as the compound, how does the “fluorescence intensity, cancer cells vs normal cells, complete medium” value [1] read?
**A.** Its value is “no significant difference in fluorescence intensity between cancer cells and normal cells”.

**Q.** What about the “selectivity for cancer cells” value [1] of the same compound?
**A.** Its value is “non-selective for cancer cells”.

**Q.** And the “way of entering cells” value (HeLa cells)?
**A.** Its value is “enters cells mainly via free diffusion rather than active transport”.

**Q.** And the “red fluorescence at 37 °C compared with 4 °C” value (HeLa cells)?
**A.** Its value is “no obvious difference in fluorescence intensity”.

**Q.** What does the source list for CCCCCCCCCCCC[n+]1ccc(/C=C/c2c[nH]c3ccccc23)c2ccccc21.[I-] [Example 2, (E)-4-(2-(1H-indol-3-yl)vinyl)-1-n-dodecylquinolinium iodide]?
**A.** autophagy activation / modulation (HeLa cells (autophagy)): autophagy-modulating activity; generation of vacuoles (autophagic vacuoles/vesicles and autophagosomes) in the cytoplasm (HeLa cells (autophagy)): a large number of vacuoles (autophagic vesicles and autophagosomes) are generated; distribution of compound fluorescence in organelles [2]: distributed in the two organelles, mitochondria and lysosomes

**Q.** For CCCCCCCCCCCC[n+]1ccc(/C=C/c2c[nH]c3ccc(OC)cc23)c2ccccc21.[I-] [Example 1, (E)-4-(2-(5-methoxy-1H-indol-3-yl)vinyl)-1-n-dodecylquinolinium iodide], which “growth inhibition of normal HEK293 cell spheroids” value (HEK293 cell spheroids) is on record?
**A.** The value was “does not cause significant growth inhibition”.

**Q.** And the “size and shape of HEK293 cell spheroids” value (HEK293 cell spheroids; vs blank control)?
**A.** The value was “do not change significantly compared with the blank control”.

**Q.** What about the “autophagy activation / modulation” value (HeLa cells (autophagy)) of the same compound?
**A.** Its value is “can activate autophagy”.

**Q.** What about the “generation of vacuoles (autophagic vacuoles/vesicles and autophagosomes) in the cytoplasm” value (HeLa cells (autophagy)) of the same compound?
**A.** Its value is “a large number of vacuoles (autophagic vacuoles and autophagosomes) are generated”.

**Q.** What about the “fluorescence peak of bovine serum albumin” value (bovine serum albumin; PBS, compound 0 to 15 μM, 280 nm EX) of the same compound?
**A.** The value was “gradually decreases”.

**Q.** What about the affinity for albumin (bovine serum albumin; bovine serum albumin in PBS) of the same compound?
**A.** The affinity for albumin was “high affinity for albumin”.

**Q.** And the “binding constant with albumin” value (bovine serum albumin; bovine serum albumin in PBS, compound 0 to 15 μM, 280 nm EX, double-logarithmic fit)?
**A.** Its value is 1.35×10^8.

**Q.** And the “distribution of compound fluorescence in organelles” value [2]?
**A.** Its value is “distributed in the two organelles, mitochondria and lysosomes”.

**Q.** What about the “fluorescence intensity, cancer cells vs normal cells, serum-free” value ([1]; DMEM (serum-free)) of the same compound?
**A.** The value was “almost no difference in fluorescence intensity between cancer cells and normal cells”.

**Q.** And the “fluorescence intensity, cancer cells vs normal cells, complete medium” value [1]?
**A.** Its value is “the fluorescence intensity of cancer cells is significantly higher than the fluorescence intensity of normal cells”.

**Q.** And the “selectivity for cancer cells” value [1]?
**A.** The value was “high selectivity for cancer cells”.

**Q.** What about the “entry into cancer cells vs normal cells, serum-free” value ([1]; serum-free medium) of the same compound?
**A.** The value was “no significant difference”.

**Q.** And the “fluorescence of rhodamine 123” value [3]?
**A.** The value was “greatly weakened”.

**Q.** What about the mitochondrial membrane potential [3] of the same compound?
**A.** Its mitochondrial membrane potential is “decreases significantly”.

**Q.** What about the “fluorescence of LysoSensor Green” value [4] of the same compound?
**A.** Its value is “greatly weakened”.

**Q.** And the “lysosomal pH” value [4]?
**A.** Its value is “increases significantly”.

**Q.** And the “way of entering cells” value (HeLa cells)?
**A.** Its value is “enters cells mainly via active transport”.

**Q.** And the “red fluorescence at 37 °C compared with 4 °C” value (HeLa cells)?
**A.** The value was “significantly stronger”.

**Q.** And the “fusion of mitochondria and lysosomes / autophagic flux” value [5]?
**A.** Its value is “can prevent fusion of cellular mitochondria and lysosomes and block autophagic flux”.

**Q.** What about the “overlap of mitochondrial and lysosomal fluorescence” value [5] of the same compound?
**A.** Its value is “almost no overlap”.

**Q.** And the “cell debris near HeLa cell spheroids” value (HeLa cell spheroids)?
**A.** The value was “many cell debris appear near the cell spheroids”.

**Q.** And the “growth of cancerous HeLa cell spheroids” value (HeLa cell spheroids)?
**A.** Its value is “significantly inhibits and disrupts the growth”.

**Q.** And the “size of HeLa cell spheroids” value (HeLa cell spheroids; vs blank control and before administration)?
**A.** Its value is “much smaller than those in the blank control as well as than the cell spheroids before drug administration”.

**Q.** What about the “selective killing effect on cancer cells” value (HeLa cell spheroids; HeLa vs HEK293 cell spheroids) of the same compound?
**A.** The value was “significant selective killing effect on cancer cells”.
